One assay concerns the target T1, human SGLT1 (Homo sapiens, UniProt P13866).
T1 construct: expressed in transfected cells
T1 sequence (P13866 1-664): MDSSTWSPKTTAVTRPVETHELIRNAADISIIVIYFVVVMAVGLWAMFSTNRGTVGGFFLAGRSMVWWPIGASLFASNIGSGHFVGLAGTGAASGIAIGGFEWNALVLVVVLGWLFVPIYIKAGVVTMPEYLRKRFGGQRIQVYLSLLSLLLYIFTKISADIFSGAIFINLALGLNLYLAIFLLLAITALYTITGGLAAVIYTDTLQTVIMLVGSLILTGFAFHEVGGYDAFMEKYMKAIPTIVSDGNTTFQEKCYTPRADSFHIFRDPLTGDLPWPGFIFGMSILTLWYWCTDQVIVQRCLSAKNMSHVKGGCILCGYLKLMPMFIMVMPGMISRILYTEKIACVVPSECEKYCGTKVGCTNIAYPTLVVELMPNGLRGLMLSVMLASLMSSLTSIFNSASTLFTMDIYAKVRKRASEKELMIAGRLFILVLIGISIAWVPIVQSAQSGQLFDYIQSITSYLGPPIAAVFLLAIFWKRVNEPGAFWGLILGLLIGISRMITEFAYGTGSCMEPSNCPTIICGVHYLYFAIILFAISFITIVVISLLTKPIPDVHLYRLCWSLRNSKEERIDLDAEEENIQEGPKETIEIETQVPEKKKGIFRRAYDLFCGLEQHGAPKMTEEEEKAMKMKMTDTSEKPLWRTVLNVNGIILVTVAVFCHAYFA
The assay is described as follows: Cell-based assay for sodium-dependent glucose transport (14C-AMG uptake), CHOK-SGLT1. The following applies: CHO-K1 cells stably expressing human SGLT1; for inhibition at 10 µM: 10 μM compound, read-out: CHOK-SGLT1 % Inh. @ 10 μM; for IC50: Na-dependent 14C-AMG uptake. How it is done:
(§1) Cloning of the human SGLT1 and human SGLT2 cDNAs and construction of the mammalian expression vector: The human SGLT1 cDNA (Genbank M24847) was cloned from human small intestine. Human SGLT2 cDNA (Genbank M95549) was cloned from human kidney. Both full cDNAs were subcloned into pcDNA and sequenced to verify the integrity of the construct.
(§2) Generation of CHO-K1 cells stably expressing human SGLT1 or human SGLT2: Transfection of CHO-K1 cells was performed using DMRIE-C reagent (Life Technologies, Gaithersburg, Md.). Transfectants were then selected in the presence of the antibiotic G418 (Gibco-BRL, Grand Island, N.Y.) at 400 μg/ml. Individual clones were then characterized using the functional assay described below.
(§3) Cell-based assay for sodium-dependent glucose transport: Cell lines stably expressing human SGLT1 or SGLT2 were then used for functional analysis of Na+-dependent glucose uptake. Briefly, cells were plated at a density of 65,000 cells per well in a 96-well plate and allowed to grow for 48 hours. Cells were subsequently washed one time with Assay Buffer (50 mM HEPES pH […], 5 mM KCl, 1 mM MgCl2, 1 mM CaCl2 and 137 mM NaCl) and treated with compound in the absence or presence of NaCl for 15 minutes. Cells were then labeled with ^14C-α-methylglucopyranoside (AMG, Sigma, St. Louis, Mo.), a non-metabolizable glucose analog specific for sodium-dependent glucose transporters as previously described (Peng, H. and Lever J. E. Post-transcriptional regulation of Na^+/glucose cotransporter (SGLT1) gene expression in LLC-PK1 cells. J Biol Chem 1995; 270:20536-20542.). After 2 hours the labeled cells were washed three times with ice-cold PBS. After aspiration, cells were solubilized using Microscint 20 (Packard, Meriden, Conn.) and Na-dependent ^14C-AMG uptake was quantified by measuring radioactivity. Plates were counted in a TopCount (Packard, Meriden, Conn.). Results are reported as the % inhibition or IC50 value from a representative experiment. Variability for the functional assay was typically within 20%.

Another assay concerns the target T2, human SGLT2 (Homo sapiens, UniProt P31639).
T2 construct: expressed in transfected cells
T2 sequence (P31639 1-672): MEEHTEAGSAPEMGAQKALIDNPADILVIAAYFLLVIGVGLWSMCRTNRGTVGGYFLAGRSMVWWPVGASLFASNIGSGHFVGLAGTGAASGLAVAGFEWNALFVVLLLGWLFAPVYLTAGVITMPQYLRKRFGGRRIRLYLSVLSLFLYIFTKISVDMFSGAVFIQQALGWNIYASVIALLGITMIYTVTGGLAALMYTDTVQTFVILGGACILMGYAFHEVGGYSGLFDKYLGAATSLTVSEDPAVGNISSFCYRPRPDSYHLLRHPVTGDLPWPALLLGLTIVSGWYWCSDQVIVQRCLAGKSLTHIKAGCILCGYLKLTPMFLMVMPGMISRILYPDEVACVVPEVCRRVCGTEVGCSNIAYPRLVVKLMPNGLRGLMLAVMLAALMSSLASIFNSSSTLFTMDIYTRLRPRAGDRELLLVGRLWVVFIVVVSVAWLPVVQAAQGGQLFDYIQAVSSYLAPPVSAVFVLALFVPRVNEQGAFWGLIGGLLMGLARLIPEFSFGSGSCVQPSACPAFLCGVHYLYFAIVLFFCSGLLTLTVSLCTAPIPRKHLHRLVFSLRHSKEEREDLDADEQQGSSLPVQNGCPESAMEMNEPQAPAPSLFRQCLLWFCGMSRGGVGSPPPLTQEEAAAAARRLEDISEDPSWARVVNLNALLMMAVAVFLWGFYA
Kind of assay: Cell-based assay for sodium-dependent glucose transport (14C-AMG uptake), CHOK-SGLT2. Conditions: CHO-K1 cells stably expressing human SGLT2; for IC50: Na-dependent 14C-AMG uptake; for inhibition at 10 µM: 10 μM compound, read-out: CHOK-SGLT2 % Inh. @ 10 μM. On the procedure:
as §1, §2, §3

One may read the IC50 as the point on the concentration scale where inhibition reaches its midpoint. A lower IC50 goes with higher potency. As for `CC(C)c1ccc(Cc2c[nH]c3cccc(O[C@@H]4O[C@H](CO)[C@@H](O)[C@H](O)[C@H]4O)c23)cc1` [Example 18, 2-[3-(4-isopropyl-benzyl)-1H-indol-4-yloxy]-β-D-glucopyranoside], on human SGLT1, the inhibition at 10 µM is 49%. Besides, on human SGLT2, 88 nM corresponded to half-maximal inhibition (IC50).
The like results for `OC[C@H]1O[C@@H](Oc2cccc3[nH]cc(Cc4ccc(-c5ccccc5)cc4)c23)[C@H](O)[C@@H](O)[C@@H]1O` [Example 19, 2-(3-Biphenyl-4-ylmethyl-1H-indol-4-yloxy)-β-D-glucopyranoside] were, in that order, 63% and 101 nM.
The like results for `OC[C@H]1O[C@@H](Oc2cccc3[nH]cc(Cc4ccc(-c5ccccc5)c(F)c4)c23)[C@H](O)[C@@H](O)[C@@H]1O` [Example 20, 2-[3-(2-Fluoro-biphenyl-4-ylmethyl)-1H-indol-4-yloxy]-β-D-glucopyranoside] were, in that order, 35% and 114 nM.
Taken in the same sequence, the figures for `CCN(CC)C(=O)n1cc(Cc2ccc(OC)cc2)c2c(O[C@@H]3O[C@H](CO)[C@@H](O)[C@H](O)[C@H]3O)cccc21` [Example 21, 2-[1-Diethylcarbamoyl-3-(4-methoxy-benzyl)-1H-indol-4-yloxy]-β-D-glucopyranoside] were 43% and 1430 nM.
Regarding `COc1ccc(Cc2c[nH]c3cccc(O[C@@H]4O[C@H](CO)[C@@H](O)[C@H](O)[C@H]4O)c23)cc1` [Example 22, 2-[3-(4-Methoxy-benzyl)-1H-indol-4-yloxy]-β-D-glucopyranoside], the figures for the IC50 on human SGLT1 and against human SGLT2 were 1120 nM and 118 nM, respectively.
Take `COc1ccc(Cc2cn(C)c3cccc(O[C@@H]4O[C@H](CO)[C@@H](O)[C@H](O)[C@H]4O)c23)cc1` [Example 23, 2-[3-(4-Methoxy-benzyl)-1-methyl-1H-indol-4-yloxy]-β-D-glucopyranoside]: the inhibition at 10 µM at human SGLT1 turned out to be 69%. This molecule yielded an IC50 on human SGLT2 of 1220 nM.
The like results for `COc1ccc(Cc2c[nH]c3cccc(O[C@@H]4O[C@H](CO)[C@@H](O)[C@H](O)[C@H]4O)c23)cc1F` [Example 24, 2-[3-(3-Fluoro-4-methoxy-benzyl)-1H-indol-4-yloxy]-D-glucopyranoside] were, in that order, 79% and 202 nM.
As to `CCOc1ccc(Cc2c[nH]c3cccc(O[C@@H]4O[C@H](CO)[C@@H](O)[C@H](O)[C@H]4O)c23)cc1` [Example 25, 2-[3-(4-Ethoxy-benzyl)-1H-indol-4-yloxy]-β-D-glucopyranoside], the inhibition at 10 µM at human SGLT1 amounted to 49%. The molecule also came in with an IC50 on human SGLT2 of 100 nM.
As to `CSc1ccc(Cc2c[nH]c3cccc(O[C@@H]4O[C@H](CO)[C@@H](O)[C@H](O)[C@H]4O)c23)cc1` [Example 27, 2-[3-(4-Methylsulfanyl-benzyl)-1H-indol-4-yloxy]-β-D-glucopyranoside], the values for the IC50 at human SGLT1 and on human SGLT2 were 1310 nM and 26 nM, respectively.
As for `OC[C@H]1O[C@@H](Oc2cccc3[nH]cc(Cc4ccc(Cl)cc4)c23)[C@H](O)[C@@H](O)[C@@H]1O` [Example 28, 2-[3-(4-Chloro-benzyl)-1H-indol-4-yloxy]-β-D-glucopyranoside], the inhibition at 10 µM at human SGLT1 was 58%. The molecule further yielded an IC50 on human SGLT2 of 346 nM.
The like results for `OC[C@H]1O[C@@H](Oc2cccc3[nH]cc(Cc4ccc5ccccc5c4)c23)[C@H](O)[C@@H](O)[C@@H]1O` [Example 29, 2-(3-Naphthalen-2-ylmethyl-1H-indol-4-yloxy)-β-D-glucopyranoside] were, in that order, 68% and 260 nM.
Taken in the same sequence, the figures for `OC[C@H]1O[C@@H](Oc2cccc3[nH]cc(Cc4ccc5c(c4)CCO5)c23)[C@H](O)[C@@H](O)[C@@H]1O` [Example 30, 2-[3-(2,3-Dihydro-benzofuran-5-ylmethyl)-1H-indol-4-yloxy]-β-D-glucopyranoside] were 30% and 1870 nM.
The like results for `CCc1ccc(Cc2c[nH]c3cc(C)cc(O[C@@H]4O[C@H](CO)[C@@H](O)[C@H](O)[C@H]4O)c23)cc1` [Example 32, 2-[3-(4-Ethyl-benzyl)-6-methyl-1H-indol-4-yloxy]-β-D-glucopyranoside] were, in that order, 30% and 117 nM.
For the molecule `Cc1ccsc1Cc1c[nH]c2cccc(O[C@@H]3O[C@H](CO)[C@@H](O)[C@H](O)[C@H]3O)c12` [Example 34], the inhibition at 10 µM on human SGLT1 was determined as 27%. For the same molecule, the IC50 against human SGLT2 is 5040 nM.
As to `OC[C@H]1O[C@@H](Oc2cccc3[nH]cc(Cc4ccc(-c5cccnc5)cc4)c23)[C@H](O)[C@@H](O)[C@@H]1O` [Example 35, 2-[3-(4-Pyridin-3-yl-benzyl)-1H-indol-4-yloxy]-β-D-glucopyranoside], the IC50 against human SGLT1 was determined as 1120 nM; against human SGLT2, 133 nM.
Turning to `CCc1ccc(Cc2c(C)[nH]c3cccc(O[C@@H]4O[C@H](CO)[C@@H](O)[C@H](O)[C@H]4O)c23)cc1` [Example 36, 2-[3-(4-Ethyl-benzyl)-2-methyl-1H-indol-4-yloxy]-β-D-glucopyranoside], the inhibition at 10 µM was determined as 16% on human SGLT1 and 52% at human SGLT2.
Regarding `OC[C@H]1O[C@@H](Oc2cccc3[nH]cc(Cc4ccc(-c5ccsc5)cc4)c23)[C@H](O)[C@@H](O)[C@@H]1O` [Example 37, 2-[3-(4-Thiophen-3-yl-benzyl)-1H-indol-4-yloxy]-β-D-glucopyranoside], the figures for the half-inhibitory concentration (IC50) against human SGLT1 and against human SGLT2 were 1890 nM and 34 nM, respectively.
Regarding `CCc1ccc(C(=O)c2c[nH]c3cccc(O[C@@H]4O[C@H](CO)[C@@H](O)[C@H](O)[C@H]4O)c23)cc1` [Example 38, 2-[3-(4-Ethylbenzoyl)-1H-indol-4-yloxy]-β-D-glucopyranoside], the results for the inhibition at 10 µM on human SGLT1 and at human SGLT2 were 7% and 22%, respectively.

(Values after patent publication US7820630B2, “Substituted indole-O-glucosides” (Janssen Pharmaceutica NV, priority 2003, dated 2010).)
